Laboratory results taken from patent US10710951B2, “Pharmaceutical composition containing verbenone derivative for treating or preventing neurodegenerative disease” (KOREA UNIVERSITY RESEARCH AND BUSINESS FOUNDATION, priority 2012, dated 2020).

Assays:
cortical neurons [1] = assay: Intracellular levels (DCF fluorescence) of reactive oxygen species after OGD/reoxygenation; assay type: cell-based, SD rats; conditions: FIG. 3
Protocol: In order to examine the direct radical scavenging activities of the samples, at 1 hour after reoxygenation, the cells were stained with the fluorescent probe H2DCF-DA (2,7-dihydroichlorofluorescein diacetate) that is widely used to measure intracellular oxidative stress. After 2 hours, the cells were washed in EBSS buffer (containing 25 mM glucose, 1.8 mM CaCal2, 1.2 mM MgSO4 and 2.5 mM probenecid (pH7.4)), and the fluorescence of DCF was measured with a fluorescence microplate reader (SpectraMax GeminiEM; Ex=485 nm, Em=530 nm) or a fluorescence microscope (DM IL HC Fluo, Leica, Wetzlar, Germany) equipped with a digital camera (DFC420C, Leica, Wetzlar Germany). The fluorescence intensity was compensated with autofluorescence (i.e., the fluorescence of cells not loaded with H2DCF-DA).

[2] = Oxygen radical absorbance capacity (ORAC) assay; parameters: ORAC assay TE25 (trolox equivalents): dose or concentration left out as unconfirmed
Protocol: An ORAC assay was performed as disclosed in the literature (Huang, D. et al., J. Agric. Food Chem., 53, 1841-56, 2005).
AAPH (60 mM) and fluorescein (50 nM) were prepared in buffer (75 mM phosphate buffer, pH7.4) without a sample or a sample or a standard (Trolox). Each of the samples and the standard was suspended in a solution of 7% RMCD (randomly methylated beta-cyclodextrin) in 50% acetone. RMCD was used to increase the solubility of oil-soluble samples. Each sample was sufficiently mixed with fluorescein solution (66 nM, 190 μl) by shaking for 5 seconds. After incubation at 37° C. for 10 minutes, AAPH (500 mM, 30 μl) was quickly added to each sample, and a decrease in the fluorescence was measured using a fluorescence microplate reader (Ex=485 nm, Em=530 nm; SpectraMax GeminiEM, Molecular Devices, Sunnyvale, Calif.) at 37° C. at 5-min intervals for 9 hours. To quantify the activity of scavenging peroxyl radicals, AUC (area-under-the-curve) was calculated according to the following equation 2, and net AUC was calculated according to the following equation 3, and the TE (trolox equivalents) of each sample was calculated according to the following equation 4 based on a standard curve of net AUC plotted according to an increase in trolox concentration. AUC=(0.5+f1/f0+f2/f0+f3/f0+ . . . +fn−2/f0+fn−1/f0+fn/f0)×5, Equation 2
wherein f0 is the first fluorescence at 0 min and time I. Net AUC=AUCsample−AUCblank. Equation 3 TE(trolox equivalents) of each sample=[netAUCsample […]]/[net AUCtrolox […]]. Equation 4
The antioxidant activities of the verbenone derivatives of the present invention were measured by the following two different chemical reactions: (1) a single electron transfer-based assay that is a […] [DPPH] assay that measures a decrease in DPPH acting as a free radical generator and a termination probe; and (2) a hydrogen atom transfer assay that is an oxygen radical absorbance capacity [[…]] assay that measures the competitive reaction kinetics of a peroxyl radical generator (AAPH; 2,2′-azobis-(2-methylpropionamide)-dihydrochloride) and each sample acting as an antioxidant for oxidizable fluorescent probe (fluorescein).

cortical neurons [3] = assay: Oxygen-glucose deprivation (OGD)/reoxygenation neuronal injury, LDH release; assay type: cell-based; conditions: rat cortical neurons, FIG. 1
Protocol: Cortical neurons (5×10^5 cells/ml) were isolated from fetal SD rats (16-17 days). Specifically, brain cortex was cut, and cells were isolated from the tissue by repeated trituration using a Pasteur pipette in buffer (Hanks' Balanced Salt Solution, HBSS). The cell suspension (1.8×10^3 cells/mm^2) was dispensed on a plate pretreated with poly-D-lysine ([…])/laminin ([…]). The cells were placed in 10% FBS-containing NBM medium, and incubated in a […]/5% CO2 atmosphere at 37° C. After 15-16 days of the incubation, the experiment was performed.
In order to induce hypoxic-ischemic symptoms in vitro, the incubated cells were placed in an anoxic chamber (partial oxygen pressure <2 mmHg). The cells were incubated glucose-free DMEM while being bubbled with an anaerobic gas mixture (95% N2 and 5% CO2) for 30 minutes to remove residual oxygen, and were incubated at 37° C. for 90 minutes for oxygen deprivation. After 90 minutes, the exposed solution was replaced with 25 mmol/L glucose-containing DMEM medium to stop the OGD reaction, and the cells were restored to normal oxygen conditions. Control cells not exposed to OGD were incubated in glucose (25 mmol/L)-containing DMEM medium provided with an aerobic gas mixture (95% air and 5% CO2). The cells were treated with each sample 30 minutes before, and during the entire period of OGD/re-oxygenation.
In order to measure cell injury or cell death, the amount of LDH released into the medium was measured using a cell viability measurement kit (Sigma-Aldrich, St. Louis, Mo.). Cell viability was expressed as the percentage of LDH relative to the total cellular LDH level measured in sister cultures lysed by freezing-thawing after the experiment.

## COc1cc(C=CC2=CC(=O)[C@H]3C[C@@H]2C3(C)C)cc(O)c1O [Compound 3f, (1S,5R)-4-(3,4-dihydroxy-5-methoxystyryl)-6,6-dimethylbicyclo[3.1.1]hept-3-en-2-one]
Cortical neurons [1]
  OGD-induced intracellular oxidative stress (DCF fluorescence): reduced OGD-induced intracellular oxidative stress
[2]
  ORAC assay Net AUC: 99.06 ± 37.80
[2]; net AUC sample / net AUC trolox
  ORAC assay TE25 (trolox equivalents): 2.83 ± 0.22
Cortical neurons [3]; OGD/reoxygenation, comparable to MK801
  neuronal injury induced by OGD (LDH release): significantly reduced neuronal injury
Cortical neurons [3]
  cytotoxicity: showed no cytotoxicity
